Tested on: Sprague-Dawley male rats
Test: Treadmill Test using Young Rat (1)
Assay type: in vivo
Details: oral 100 mg/kg; for Extension of maximum running time (result in words): before vs three hours after administration; for Extension of maximum running time: maximum running time three hours after vs before administration, 7 to 10 week old rats, n=20
Protocol: Treadmill Test using Young Rat (1)
Using Sprague-Dawley malerats (7 to 10 week old, n=20) anti-fatigue effects brought about by reduced coenzyme Q10 alone (about 2% of oxidized coenzyme Q10 included), carnitine alone, and combination use of reduced coenzyme Q10 and carnitine were evaluated with a treadmill. In the test, rats were run at a speed of 10 m/min using a treadmill apparatus (model NK-73-4 made by Natume Seisakusho Co., Ltd.), and the speed was increased stepwise, by 5 m/min every 3 minutes, and the time when the rats became unable to run (maximum running time) was measured.
As a substance to be tested, a 0.5% sodium carboxymethylcellulose (CMC-Na) aqueous solution of reduced coenzyme Q10 (about 2% of oxidized coenzyme Q10 included) or carnitine (reduced coenzyme Q10 or carnitine/CMC-Na=10 mg/ml) was prepared and the solution was orally administered to rats at a dose of 100 mg/kg. Rats were divided into four groups of a solvent administered group, reduced coenzyme Q10 only administered group, a carnitine only administered group, and a reduced coenzyme Q10 and carnitine combined group. The maximum running time was measured before and three hours after the administration and the time extended from the maximum running time was calculated. A 0.5% CMC-Na aqueous solution was administered to the control group.

Row | Compound | Extension of maximum running time (result in words) | Extension of maximum running time
1 | C[N+](C)(C)CC(O)CC(=O)[O-] (stereo not shown) [Carnitine, 4-trimethylamino-3-hydroxybutyric acid] | no extension of the maximum running time | −0 ± 151 S
2 | COc1c(O)c(C)c(C/C=C(\C)CC/C=C(\C)CC/C=C(\C)CC/C=C(\C)CC/C=C(\C)CC/C=C(\C)CC/C=C(\C)CC/C=C(\C)CC/C=C(\C)CCC=C(C)C)c(O)c1OC [Reduced coenzyme Q10, reduced coenzyme Q10] | no extension of the maximum running time | −22 ± 71 S
